Measurements published in ChEMBL document CHEMBL4818987, “Recent advances of podophyllotoxin/epipodophyllotoxin hybrids in anticancer activity, mode of action, and structure-activity relationship: An update (2010-2020)” (Eur J Med Chem, 2020).
pIC50: −log10 of the molar value.

Legend:
SW480 [1] = assay: Antiproliferative activity against human SW480 cells incubated for 48 hrs by MTT assay; assay type: functional, cell-based; conditions: SW480, 48 h
SMMC-7721 [2] = assay: Antiproliferative activity against human SMMC-7721 cells incubated for 48 hrs by MTT assay; assay type: functional, cell-based; conditions: SMMC-7721, 48 h
HL-60 [3] = assay: Antiproliferative activity against human HL-60 cells incubated for 48 hrs by MTT assay; assay type: functional, cell-based; conditions: HL-60, 48 h
CCRF S-180 = assay: Antitumor activity against mouse S180 cells implanted in ICR mouse assessed as reduction in tumor weight at 20 mg/kg, ip administered everyday for 7 days relative to control; assay type: functional; set-up: scale not given: the % may be the effect or the level left; conditions: time 7 day
MCF7 [4] = assay: Antiproliferative activity against human MCF7 cells incubated for 48 hrs by MTT assay; assay type: functional, cell-based; conditions: MCF7, 48 h
A549 [5] = assay: Antiproliferative activity against human A549 cells incubated for 48 hrs by MTT assay; assay type: functional, cell-based; conditions: A549, 48 h
K562/VCR [6] = assay: Potency index, ratio of etoposide IC50 to compound IC50 for antiproliferative activity against human K562/VCR cells; assay type: functional
K562/VCR [7] = assay: Potency index, ratio of vincristine IC50 to compound IC50 for antiproliferative activity against human K562/VCR cells; assay type: functional
K562/Adr = assay: Antiproliferative activity against human K562/ADR cells incubated for 72 hrs by CCK8 method; assay type: functional, cell-based
K562 [8] = assay: Antiproliferative activity against human K562 cells incubated for 72 hrs by CCK8 method; assay type: functional, cell-based; conditions: K562, 72 h
K562/VCR [9] = assay: Antiproliferative activity against human K562/VCR cells incubated for 72 hrs by CCK8 method; assay type: functional, cell-based
K562 [10] = assay: Cytotoxicity against human K562 cells by SRB assay; assay type: functional, cell-based
K562/A02 [11] = assay: Potency index, ratio of etoposide GI50 to test compound GI50 for human K562/A02 cells; assay type: functional
K562/A02 [12] = assay: Potency index, ratio of doxorubicin IC50 to test compound IC50 for human K562/A02 cells; assay type: functional
K562/A02 [13] = assay: Cytotoxicity against human K562/A02 cells by SRB assay; assay type: functional, cell-based
A549 [14] = assay: Potency index, ratio of etoposide IC50 to test compound IC50 for antiproliferative activity against human A549 cells; assay type: functional
Huh-7 [15] = assay: Potency index, ratio of etoposide IC50 to test compound IC50 for antiproliferative activity against human Huh-7 cells; assay type: functional
Huh-7 [16] = assay: Antiproliferative activity against human Huh7 cells incubated for 48 hrs by MTT assay; assay type: functional, cell-based; conditions: Huh-7, 48 h
HeLa [17] = assay: Antiproliferative activity against human HeLa cells incubated for 48 hrs by MTT assay; assay type: functional, cell-based
MCF7 [18] = assay: Potency index, ratio of etoposide IC50 to test compound IC50 for antiproliferative activity against human MCF7 cells; assay type: functional
BGC-823 [19] = assay: Potency index, ratio of etoposide IC50 to test compound IC50 for antiproliferative activity against human BGC-823 cells; assay type: functional
HeLa [20] = assay: Potency index, ratio of etoposide IC50 to test compound IC50 for antiproliferative activity against human HeLa cells; assay type: functional
BGC-823 [21] = assay: Antiproliferative activity against human BGC-823 cells incubated for 48 hrs by MTT assay; assay type: functional, cell-based; conditions: BGC-823, 48 h
MGC-803 = assay: Antiproliferative activity against human MGC-803 cells incubated for 48 hrs by MTT assay; assay type: functional, cell-based; conditions: MGC-803, 48 h
K562/A02 [22] = assay: Antiproliferative activity against human K562/A02 cells incubated for 48 hrs by MTT assay; assay type: functional, cell-based; conditions: K562/A02, 48 h
SK-OV-3 = assay: Antiproliferative activity against human SKOV3 cells incubated for 48 hrs by MTT assay; assay type: functional, cell-based; conditions: SK-OV-3, 48 h
SMMC-7721 [23] = assay: Potency index, ratio of cisplatin IC50 to test compound IC50 for antiproliferative activity against human SMMC7721 cells; assay type: functional
HL-60 [24] = assay: Potency index, ratio of cisplatin IC50 to test compound IC50 for antiproliferative activity against human HL-60 cells; assay type: functional
SW480 [25] = assay: Potency index, ratio of cisplatin IC50 to test compound IC50 for antiproliferative activity against human SW480 cells; assay type: functional
MCF7 [26] = assay: Potency index, ratio of cisplatin IC50 to test compound IC50 for antiproliferative activity against human MCF7 cells; assay type: functional
A549 [27] = assay: Potency index, ratio of cisplatin IC50 to test compound IC50 for antiproliferative activity against human A549 cells; assay type: functional

For `COc1cc([C@@H]2c3cc4c(cc3[C@@H](OC(=O)CCCC[C@@H]3SC[C@@H]5NC(=O)N[C@@H]53)[C@H]3COC(=O)[C@H]23)OCO4)cc(OC)c1O`, the pIC50 (SW480 [1]) was 6.89, the pIC50 (SMMC-7721 [2]) was 6.89 and the pIC50 (HL-60 [3]) was 6.89. It also gave an Activity (CCRF S-180) of 37.7%, a pIC50 (MCF7 [4]) of 6.89 and a pIC50 (A549 [5]) of 6.89.
For `COc1cc([C@@H]2c3cc4c(cc3[C@H](OC(=O)c3nn(Cc5cc(Cl)cc(Cl)c5)c5ccccc35)[C@H]3COC(=O)[C@H]23)OCO4)cc(OC)c1OC`, the “Ratio IC50” value (K562/VCR [6]) was 8.1, the “Ratio IC50” value (K562/VCR [7]) was 8.1 and the pIC50 (K562/Adr) was 6.25. It also gave a pIC50 (K562 [8]) of 6.37 and a pIC50 (K562/VCR [9]) of 6.24.
In the case of `COc1ccc2[nH]cc(C(=O)C(=O)N[C@@H]3c4cc5c(cc4[C@@H](c4cc(OC)c(OC)c(OC)c4)[C@H]4C(=O)OC[C@@H]43)OCO5)c2c1`, the GI50 (K562 [10]) was 1020 nM, the “Ratio IC50” value (K562/A02 [11]) was 4.2 and the “Ratio IC50” value (K562/A02 [12]) was 4.2. It also gave a GI50 (K562/A02 [13]) of 3340 nM.
`COc1cc([C@@H]2c3cc4c(cc3[C@@H](Nc3ncccc3F)[C@H]3COC(=O)[C@H]23)OCO4)cc(OC)c1OC` was tested, and the “Ratio IC50” value (A549 [14]) was 3.3, the “Ratio IC50” value (Huh-7 [15]) was 3.3 and the pIC50 (Huh-7 [16]) was 7.22. For the same compound, the pIC50 (HeLa [17]) was 7.22, the “Ratio IC50” value (MCF7 [18]) was 3.3 and the “Ratio IC50” value (BGC-823 [19]) was 3.3. The “Ratio IC50” value (HeLa [20]) was 3.3, the pIC50 (MCF7 [4]) was 7.22 and the pIC50 (A549 [5]) was 7.22. For the same compound, the pIC50 (BGC-823 [21]) was 7.22.
`COc1cc(C(=O)/C=C/c2ccc(F)cc2)ccc1OCc1cn([C@@H]2c3cc4c(cc3[C@@H](c3cc(OC)c(OC)c(OC)c3)[C@H]3C(=O)OC[C@@H]32)OCO4)nn1` gave a pIC50 (MGC-803) of 6.28, a pIC50 (K562/A02 [22]) of 6.28 and a pIC50 (SK-OV-3) of 6.28. The pIC50 (BGC-823 [21]) was 6.28.
`CCCC(=O)O[C@@H]1[C@@H](OC(=O)CCC)[C@H](OCc2cn([C@@H]3c4cc5c(cc4[C@@H](c4cc(OC)c(O)c(OC)c4)[C@H]4C(=O)OC[C@@H]43)OCO5)nn2)O[C@H](COCc2cn([C@@H]3c4cc5c(cc4[C@@H](c4cc(OC)c(O)c(OC)c4)[C@H]4C(=O)OC[C@@H]43)OCO5)nn2)[C@H]1OC(=O)CCC` was tested, and the pIC50 (SW480 [1]) was 4.85, the pIC50 (SMMC-7721 [2]) was 4.85 and the “Ratio IC50” value (SMMC-7721 [23]) was 2.8. For the same compound, the pIC50 (HL-60 [3]) was 4.85, the “Ratio IC50” value (HL-60 [24]) was 2.8 and the “Ratio IC50” value (SW480 [25]) was 2.8. The “Ratio IC50” value (MCF7 [26]) was 2.8, the “Ratio IC50” value (A549 [27]) was 2.8 and the pIC50 (MCF7 [4]) was 4.85. For the same compound, the pIC50 (A549 [5]) was 4.85.
